CC(C)(C)OC(=O)N[C@@H](CCCN=C(N)N[N+](=O)[O-])C(=O)O
solubility (mole fraction)
Settings	283.15 K	288.15 K	293.15 K	298.15 K	303.15 K	308.15 K	313.15 K	318.15 K	323.15 K
in DMF	0.164	0.185	0.211	0.246	0.29	0.346	0.415	0.505	0.62
in acetonitrile	0.0012	0.00144	0.00168	0.00193	0.00222	0.00262	0.00324	0.00392	0.00491
in ethanol	0.015	0.0188	0.0234	0.0282	0.0327	0.0391	0.0469	0.0563	0.0666
in ethyl acetate	0.000705	0.000846	0.000955	0.00104	0.00114	0.0013	0.00147	0.00161	0.00187
in isobutanol	0.00231	0.00296	0.00394	0.00499	0.00618	0.00799	0.00954	0.0112	0.0143
in isopropanol	0.00489	0.0067	0.00844	0.0102	0.0127	0.0152	0.0184	0.0224	0.0267
in methanol	0.042	0.0507	0.0601	0.0692	0.0752	0.0824	0.0908	0.0976	0.111
in n-butanol	0.00377	0.00498	0.00583	0.00707	0.00842	0.00996	0.0121	0.0142	0.0172
in n-pentanol	0.00254	0.00351	0.0042	0.00489	0.00595	0.00735	0.00886	0.0106	0.013
in n-propanol	0.00543	0.00744	0.00919	0.0114	0.0132	0.0161	0.0195	0.0236	0.0285
in sec-butanol	0.00398	0.00546	0.00729	0.00896	0.0113	0.0138	0.0162	0.0192	0.0222
in water	0.000283	0.000334	0.000356	0.000404	0.000471	0.000522	0.000643	0.000799	0.000986
